The target in assay [1] is T1, PDK1 (Homo sapiens, UniProt O15530).
T1 construct: endogenous in cells; host or cells: commercially available colon carcinoma, ovary, prostate or breast cell lines (none named)
T1 sequence (O15530 1-556): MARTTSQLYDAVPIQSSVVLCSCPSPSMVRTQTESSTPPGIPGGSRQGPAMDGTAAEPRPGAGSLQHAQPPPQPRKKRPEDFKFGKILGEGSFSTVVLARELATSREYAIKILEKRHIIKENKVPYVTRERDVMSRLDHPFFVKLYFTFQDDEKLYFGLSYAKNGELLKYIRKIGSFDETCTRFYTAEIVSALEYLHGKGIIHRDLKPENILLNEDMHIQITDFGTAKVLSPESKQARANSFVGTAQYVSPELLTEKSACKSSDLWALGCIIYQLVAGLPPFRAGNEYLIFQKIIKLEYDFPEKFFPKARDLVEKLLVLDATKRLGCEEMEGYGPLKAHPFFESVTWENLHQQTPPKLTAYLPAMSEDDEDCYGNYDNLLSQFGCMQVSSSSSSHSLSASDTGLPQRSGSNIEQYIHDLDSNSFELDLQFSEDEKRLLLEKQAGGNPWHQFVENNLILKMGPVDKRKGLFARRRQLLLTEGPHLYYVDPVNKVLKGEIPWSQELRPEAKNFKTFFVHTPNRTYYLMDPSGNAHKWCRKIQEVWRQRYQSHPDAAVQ
Briefly: IC50 PDK1 (cell). The assay is classed as cell-based. As for the experimental part:
The cells are sown in a suitable cell density in microtitre plates (96-well format) and the test substances are added in the form of a concentration series. After four further days of cultivation in serum-containing medium, the tumour cell proliferation/tumour cell vitality can be determined by means of an Alamar Blue test system. A defined number of cells (for example 2000 cells) per culture/well in a volume of 180 μl of culture medium are sown in microtitre plates (96 well cell-culture plates) using a multichannel pipette. The cells are subsequently cultivated in a CO2 incubator (37° C. and 10% CO2). The test substances are dissolved, for example, in DMSO and subsequently employed in corresponding concentration (if desired in a dilution series) in the cell culture medium. The dilution steps can be adapted depending on the efficiency of the active ingredients and the desired spread of the concentrations. Cell culture medium is added to the test substances in corresponding concentrations. The addition of the test substances to the cells can take place on the same day as the sowing of the cells. To this end, in each case 20 μl of substance solution from the predilution plate are added to the cultures/wells. The cells are cultivated for a further 4 days at 37° Celsius and 10% CO2. In each case, 20 μl of Alamar Blue reagent are added per well, and the microtitre plates are incubated, for example, for a further seven hours in a CO2 incubator (at 37° C. and 10% CO2). The plates are measured in a reader with a fluorescence filter at a wavelength of 540 nm. The plates can be shaken gently immediately before the measurement. The absorbance value of the medium control (no cells and test substances used) is subtracted from all other absorbance values. The controls (cells without test substance) are set equal to 100 percent, and all other absorbance values are set in relation thereto (for example in % of control): Calculation: 100*(value with cells and test substance−value of medium control)/(value with cells−value of medium control) IC50 values (50% inhibition) are determined with the aid of statistics programs, such as, for example, RS1.

The target in assay [2] is T2, PDK1 (Homo sapiens, UniProt O15530).
T2 construct: His6 (N)
T2 sequence (O15530 51-556 limits assumed): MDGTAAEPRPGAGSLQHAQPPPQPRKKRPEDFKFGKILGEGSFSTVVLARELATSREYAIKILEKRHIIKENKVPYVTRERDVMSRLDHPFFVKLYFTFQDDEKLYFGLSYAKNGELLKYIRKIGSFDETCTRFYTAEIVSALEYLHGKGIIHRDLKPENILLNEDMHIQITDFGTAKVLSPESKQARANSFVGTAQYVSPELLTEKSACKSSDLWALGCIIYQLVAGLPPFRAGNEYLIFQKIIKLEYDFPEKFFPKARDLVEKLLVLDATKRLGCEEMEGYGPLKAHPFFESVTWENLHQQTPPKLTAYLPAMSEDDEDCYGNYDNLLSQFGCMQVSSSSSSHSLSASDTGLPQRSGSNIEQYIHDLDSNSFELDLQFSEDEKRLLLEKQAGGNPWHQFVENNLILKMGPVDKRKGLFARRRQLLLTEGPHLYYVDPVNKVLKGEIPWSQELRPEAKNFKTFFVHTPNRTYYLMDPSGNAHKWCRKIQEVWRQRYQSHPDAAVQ
Briefly: Test for the inhibition of PDK1 (flashplate, 33P-ATP). The assay is classed as biochemical. To be noted: enzyme. As for the experimental part: The experimental batches are carried out in a flashplate system with 384 wells/microtitration plate.
In each case, the PDK1 sample His6-PDK1(1-50)(3.4 nM), the PDK1 substrate biotin-bA-bA-[…] (400 nM), 4 μM ATP (with 0.2 μCi of ^33P-ATP/well) and the test substance in 50 μl of conventional experimental solution per well are incubated at 30° C. for 60 min. The test substances are employed in corresponding concentrations (if desired in a dilution series). The control is carried out without test substance. The reaction is stopped using standard methods and washed. The activity of the kinase is measured via the incorporated radioactivity in top count. In order to determine the non-specific kinase reaction (blank value), the experimental batches are carried out in the presence of 100 nM staurosporin.
The radioactivity (decompositions per minute) of the blank value (no use of test substance in the presence of staurosporin) is subtracted from all other radioactivity values. The controls (kinase activity without test substance) are set equal to 100 percent and all other radioactivity values (after subtracting the blank value) are expressed set in relation thereto (for example in % of the control).
IC50 values (50% inhibition) are determined with the aid of statistics programmes, such as, for example, RS1.

The target of the next assay is T3, IRAK-1 (Homo sapiens, UniProt P51617).
T3 construct: His6 (N); Dr.Jaekel Pool B, 232Y08C1.IRK
The assay can be described thus: Test for the inhibition of IRAK1 (autophosphorylation, flashplate). To be noted: enzyme. The assay is classed as biochemical. On the procedure: (§1) The experimental batches are carried out in a flashplate system with 384 wells/microtitre plate. In each case, in order to investigate the inhibition of the autophosphorylation activity of IRAK1, the IRAK1 sample His6-IRAK1 (5.1 nM), 1 μM ATP (with 0.25 μCi of ^33P-ATP/well) and the test substance in 50 μl of conventional experimental solution per well are incubated at 22° C. for 180 min. The test substances are employed in corresponding concentrations (if desired in a dilution series). The control is carried out without test substance. The reaction is stopped using standard methods and washed. The activity of the kinase is measured via the incorporated radioactivity in top count. In order to determine the non-specific kinase reaction (blank value), the experimental batches are carried out in the presence of 1 μM staurosporin. The radioactivity (decompositions per minute) of the blank value (no use of test substance in the presence of 1 μM staurosporin) is subtracted from all other radioactivity values. The controls (kinase activity without test substance) are set equal to 100 percent and all other radioactivity values (after subtracting the blank value) are expressed set in relation thereto (for example in % of the control). IC50 values (50% inhibition) are determined with the aid of statistics programs, such as, for example, RS1.

Another assay deals with T4, IRAK-4 (Homo sapiens, UniProt Q9NWZ3).
T4 construct: His6 (N); Dr.Jaekel
T4 sequence (Q9NWZ3 1-460): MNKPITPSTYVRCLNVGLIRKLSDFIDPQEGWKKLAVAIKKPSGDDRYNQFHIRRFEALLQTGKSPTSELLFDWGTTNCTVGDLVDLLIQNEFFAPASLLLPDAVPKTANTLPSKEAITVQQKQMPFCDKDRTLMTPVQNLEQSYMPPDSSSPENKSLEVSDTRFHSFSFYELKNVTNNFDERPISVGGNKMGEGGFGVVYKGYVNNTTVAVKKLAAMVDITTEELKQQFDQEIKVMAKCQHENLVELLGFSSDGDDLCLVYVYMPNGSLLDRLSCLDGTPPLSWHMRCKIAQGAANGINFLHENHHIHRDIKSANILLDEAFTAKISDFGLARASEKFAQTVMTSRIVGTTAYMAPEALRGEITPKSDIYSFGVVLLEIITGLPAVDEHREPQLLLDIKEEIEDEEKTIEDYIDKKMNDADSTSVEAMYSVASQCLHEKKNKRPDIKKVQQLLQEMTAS
The assay can be described thus: Test for the inhibition of IRAK4 (flashplate, 33P-ATP). The class given is biochemical. To be noted: enzyme. As for the experimental part:
as §1, with “case,” for “case, in order to investigate”, “the IRAK4 sample His6-IRAK4 (7.3 nM),” for “the inhibition of”, “the biotinylated substrate peptide STK substrate 1-biotin (Cisbio Bioassays, France) (300” for “the autophosphorylation activity of IRAK1, the IRAK1 sample His6-IRAK1 (5.1”, “nM), 10” for “nM), 1”

Usually IC50 stands for the midpoint of a concentration-inhibition curve. A higher IC50 goes with weaker potency.

SMILES strings stand for the structures.

T3 sequence (P51617 whole entry, species assumed): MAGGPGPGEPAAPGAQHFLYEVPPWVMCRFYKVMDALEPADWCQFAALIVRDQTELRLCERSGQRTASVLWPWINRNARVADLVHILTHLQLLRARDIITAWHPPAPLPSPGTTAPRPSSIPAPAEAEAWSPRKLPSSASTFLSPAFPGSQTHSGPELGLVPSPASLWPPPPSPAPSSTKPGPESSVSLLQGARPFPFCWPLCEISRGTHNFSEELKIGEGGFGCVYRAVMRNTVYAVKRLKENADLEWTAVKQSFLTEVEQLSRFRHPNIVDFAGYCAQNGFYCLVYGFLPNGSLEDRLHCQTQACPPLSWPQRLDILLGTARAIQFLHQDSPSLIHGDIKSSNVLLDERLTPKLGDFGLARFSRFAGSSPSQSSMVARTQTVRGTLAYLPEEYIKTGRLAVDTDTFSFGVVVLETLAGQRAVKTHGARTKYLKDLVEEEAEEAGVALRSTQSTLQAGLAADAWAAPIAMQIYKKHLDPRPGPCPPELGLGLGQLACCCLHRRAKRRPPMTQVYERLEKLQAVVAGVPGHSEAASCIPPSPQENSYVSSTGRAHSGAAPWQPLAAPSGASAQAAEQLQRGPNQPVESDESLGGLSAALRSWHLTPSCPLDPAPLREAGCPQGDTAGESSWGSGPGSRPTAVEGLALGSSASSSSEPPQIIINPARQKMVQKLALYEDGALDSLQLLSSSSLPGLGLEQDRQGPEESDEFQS

As for `C[C@@H]1CC(=O)NN=C1c1ccc2nc(-c3cc(-c4cnn(C)c4)cnc3N)[nH]c2c1` (single isomer, unassigned) [Compound A2], the IC50 against PDK1 [1] is 100 to 10000 nM; at PDK1 [2], 1 to 100 nM.

On to `C[C@H]1CC(=O)NN=C1c1ccc2nc(-c3cc(-c4cnn(C)c4)cnc3N)[nH]c2c1` (single isomer, unassigned) [Compound A3], for which the IC50 on PDK1 [1] is > 10000 nM; on PDK1 [2], 1 to 100 nM.

On to `CCC1CC(=O)NN=C1c1ccc2[nH]c(-c3cc(-c4cnn(C)c4)cnc3N)nc2c1` (stereo not shown) [Compound A4, 6-{2-[2-Amino-5-(1-methyl-1H-pyrazol-4-yl)-pyridin-3-yl]-1H-benzimidazol-5-yl}-5-ethyl-4,5-dihydro-2H-pyridazin-3-one], for which the values for the IC50 against PDK1 [1] and against PDK1 [2] were 100 to 10000 nM and 1 to 100 nM, respectively.

Consider `CC1CC(=O)NN=C1c1ccc2[nH]c(-c3cc(-c4cnn(CCN5CCOCC5)c4)cnc3N)nc2c1` (stereo not shown) [Compound A9, 6-(2-{2-amino-5-[1-(2-morpholin-4-ylethyl)-1H-pyrazol-4-yl]-pyridin-3-yl}-1H-benzimidazol-5-yl)-5-methyl-4,5-dihydro-2H-pyridazin-3-one], for which the IC50 at PDK1 [1] fell in the range of 100 to 10000 nM; against PDK1 [2], 1 to 100 nM.

Regarding `COc1cc2[nH]c(-c3cc(-c4cnn(C5CCNCC5)c4)cnc3N)nc2cc1F` [Compound A69], the IC50 at IRAK-1, against PDK1 [2] and against IRAK-4 was 1 to 100 nM each time.

On to `Cn1cc(-c2cnc(N)c(-c3nc4ccc(F)cc4[nH]3)c2)cn1` [Compound A74], for which the IC50 was 100 to 10000 nM at IRAK-1, 1 to 100 nM on PDK1 [2] and 100 to 10000 nM on IRAK-4.

In the case of `COc1cc2nc(-c3cc(-c4cnn(C)c4)cnc3N)[nH]c2cc1F` [Compound A78], the results for the IC50 against IRAK-1, against PDK1 [2] and on IRAK-4 were 1 to 100 nM, 1 to 100 nM and 100 to 10000 nM, respectively.

Take `Cc1cccc2nc(-c3cc(-c4cnn(C5CCNCC5)c4)cnc3N)[nH]c12` [Compound A89, 3-(7-Methyl-1H-benzimidazol-2-yl)-5-(1-piperidin-4-yl-1H-pyrazol-4-yl)pyridin-2-ylamine]: the results for the IC50 at IRAK-1, at PDK1 [2] and on IRAK-4 were 100 to 10000 nM, 1 to 100 nM and 100 to 10000 nM, respectively.

As to `COc1ccc2nc(-c3cc(-c4cnn(Cc5cccs5)c4)cnc3N)[nH]c2c1` [Compound A113, 3-(6-Methoxy-1H-benzimidazol-2-yl)-5-(1-thiophen-2-ylmethyl-1H-pyrazol-4-yl)pyridin-2-ylamine], the IC50 on IRAK-1 lay within 1 to 100 nM; against IRAK-4, 100 to 10000 nM.

For the compound `Nc1ncc(-c2cnn(C3CCNCC3)c2)cc1-c1nc2ccccc2[nH]1` [Compound A114, 3-(1H-Benzimidazol-2-yl)-5-(1-piperidin-4-yl-1H-pyrazol-4-yl)pyridin-2-ylamine], the values for the IC50 at IRAK-1 and against IRAK-4 were 100 to 10000 nM and 1 to 100 nM, respectively.

As to `Cn1cc(-c2cnc(N)c(-c3nc4cc5cn[nH]c5cc4[nH]3)c2)cn1` [Compound A115, 3-(1,7-Dihydroimidazo[4,5-f]indazol-6-yl)-5-(1-methyl-1H-pyrazol-4-yl)pyridin-2-ylamine], the IC50 against IRAK-1 and against IRAK-4 was 100 to 10000 nM each time.

On to `COCCNC(=O)c1ccc(-c2cnc(N)c(-c3nc4ccc(OC)cc4[nH]3)c2)s1` [Compound A130, N-(2-methoxyethyl)-5-[6-amino-5-(6-methoxy-1H-benzimidazol-2-yl)pyridin-3-yl]thiophene-2-carboxamide], for which the IC50 on IRAK-1 and against IRAK-4 was 1 to 100 nM each time.

As to `COc1cc2[nH]c(-c3cc(-c4cnn(CCN5CCOCC5)c4)cnc3N)nc2cc1F` [Compound A148, 3-(5-Fluoro-6-methoxy-1H-benzimidazol-2-yl)-5-[1-(2-morpholin-4-ylethyl)-1H-pyrazol-4-yl]pyridin-2-ylamine], the IC50 lay in the range of 100 to 10000 nM at IRAK-1, 100 to 10000 nM against PDK1 [2] and 1 to 100 nM on IRAK-4.

Values taken from patent publication US8648201B2, “Aminopyridine derivatives for treating tumors and inflammatory diseases” (MERCK PATENT GmbH, priority 2009, dated 2014).
